# Assay results as given in patent US20050019854A1, “Novel method for screening inhibitors of the linkage between the neuronal nitric oxide synthase associated protein and the protein inhibiting neuronal nitric oxide synthase” (priority 2001, published 2005).
# Ends that are not written are not given here.
# Assays:
# [1] = molecular target: T1, binding of the PIN to the nNOS (Rattus norvegicus, UniProt P63170); assay: ELISA: inhibition of the binding of GST-PIN to immobilized nNOS (Example 2, first method); settings: peptide 50 μg/ml
# T1 construct: catalogue number not given; host or cells: PIN: E. coli BL21 (DE3)
# [2] = molecular target: T1, binding of the PIN to the nNOS; assay: Surface plasmon resonance analysis of inhibition of PIN binding to immobilized nNOS (Example 3); settings: for inhibition of the binding of the PIN to the nNOS: SPR
# [3] = system: islets of Langerhans of Zucker (fa/fa) rats; assay: Glucose-induced insulin secretion in isolated islets of Zucker (fa/fa) rats (Example 4); type: cell-based, rat; settings: 2 g/L glucose; for reduction of the insulin response: 1 hour
# Protocol: The islets of Langerhans of Zucker (fa/fa) rats are isolated using the collagenase digestion technique of Lacy et al. (Diabetes, 1967). After isolation, the islets are stabilized in Krebs-Ringer containing 0.75 g/L glucose for 45 minutes at 37° C. Groups of three islets are then incubated in Krebs-Ringer with 2 g/L glucose containing increasing concentrations of the molecule C24H18N4O5S (20-100 μM) for 1 hour at 37° C. The liquid supernatant is then recovered and insulin secretion measured by radioimmunology (see FIG. 8).
# PIN = molecular target: T2, PIN (Rattus norvegicus, UniProt P63170); assay: Surface plasmon resonance analysis of PIN binding to immobilized nNOS peptides (Example 1)
# T2 construct: GST (N, cleaved yes); made in house; host or cells: E. coli BL21 (DE3), vector pGEX-2T
# [4] = molecular target: T3, GST-PIN (PIN with a glutathione S-transferase tag in the N-terminal position) (rat, UniProt P63170 1-89); assay: competition ELISA, GST-PIN preincubated with peptide, nNOS immobilized
# T3 construct: Produced in E. coli BL21(DE3) and purified on glutathione sepharose; The thrombin linker between GST and PIN is not described; also called GST-tagged PIN; not shown: Glutathione S-transferase tag of vector pGEX-2T (Pharmacia), N-terminal
# [5] = molecular target: T3, GST-PIN (PIN with a glutathione …); assay: competition ELISA, GST-PIN preincubated with 50 µg/ml peptide, nNOS immobilized
# [6] = molecular target: T4, protein inhibitor of neuronal nitric oxide synthase (PIN), produced by thrombin digestion of GST-PIN (rat, UniProt P63170 1-89); assay: SPR competition, PIN preincubated with peptide, nNOS immobilized
# T4 construct: Released from GST-PIN (vector pGEX-2T) by thrombin digestion; also called PIN protein
# [7] = molecular target: T4, protein inhibitor of neuronal nitric …; assay: SPR (BIAcore 2000), peptide immobilized, reference is the normal nNOS peptide
# T3 sequence (P63170 whole entry): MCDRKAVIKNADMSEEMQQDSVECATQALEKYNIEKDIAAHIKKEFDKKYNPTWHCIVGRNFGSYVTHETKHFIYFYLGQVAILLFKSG
# T1 sequence (P63170 whole entry): as above
# T2 sequence (P63170 whole entry): as above
# T4 sequence (P63170 whole entry): as above
molecule,measurement,setting,value
CC[C@H](C)[C@H](N)C(=O)N[C@@H](CC(=O)O)C(=O)N[C@H](C(=O)NCC(=O)N[C@H](C(=O)N[C@@H](CCC(N)=O)C(=O)N[C@H](C(=O)N[C@@H](CC(=O)O)C(=O)N[C@@H](Cc1c[nH]c2ccccc12)C(=O)N[C@@H](CC(=O)O)C(=O)O)C(C)C)[C@@H](C)CC)C(C)C [SEQ ID NO: 4],inhibition of the binding of the PIN to the nNOS,[1],≤ 78%
same,inhibition of the binding of the PIN to the nNOS,[2]; peptide 1 μg/ml,75%
same,inhibition of the binding of the PIN to the nNOS,[2]; peptide 10 μg/ml,98%
CCOc1ccc(N2C(=O)NC(=O)/C(=C\c3ccc(Sc4nc5ccccc5[nH]4)o3)C2=O)cc1 [C24H18N4O5S],concentration from which insulin secretion is blocked in a dose-dependant fashion,[3]; tested 20-100 μM,≥ 50 µM
same,reduction of the insulin response,[3]; molecule 50 μM,36%
same,reduction of the insulin response,[3]; molecule 100 μM,79%
KDTGIQVDWD [SEQ ID NO: 3],inhibition of the binding of the PIN to the nNOS,[1],up to 71%
same,IC50,"[2]; SPR inhibition curves, FIG. 7D, read-out: inhibition constant (Ki: IC50)",4000 nM
same,inhibition of the binding of the PIN to the nNOS,[2]; peptide 5 μg/ml,59%
same,inhibition of the binding of the PIN to the nNOS,[2]; peptide 30 μg/ml,90%
same,inhibition of the binding of the PIN to the nNOS,[2]; peptide 40 μg/ml,91%
same,Ka (association constant) of PIN for immobilized peptide,"PIN; BIAcore, PIN 5-40 μg/ml, global analysis",1.86×10^8
same,Kd,"PIN; BIAcore, PIN 5-40 μg/ml, global analysis, read-out: Kd (dissociation constant) of PIN for immobilized peptide",5.38 nM
same,affinity of the PIN protein for the mutant peptide relative to the normal peptide,"PIN; SPR, ratio vs normal peptide",two times greater
IDVGIQVDWD (Synthetic 10-mer) [mutant nNOS peptide represented by sequence SEQ ID NO: 4 (Ile-Asp-Val-Gly-Ile-Gln-Val-Asp-Trp-Asp)],IC50,[4],500 nM
same,percent inhibition of PIN-nNOS binding,[5],78%
same,IC50,[6],400 nM
KDTGIQVDWD (Synthetic 10-mer; It differs from the normal peptide by Arg to Trp at position 9) [mutant nNOS peptide represented by sequence SEQ ID NO: 3 (Lys-Asp-Thr-Gly-Ile-Gln-Val-Asp-Trp-Asp)],fold affinity against the normal peptide,[7],2 fold
same,IC50,[4],5000 nM
same,percent inhibition of PIN-nNOS binding,[5],71%
KDTGIQVDRD (Made by Fmoc solid phase synthesis; also called normal peptide; normal nNOS peptide) [normal (non-mutant) nNOS peptide Lys Asp Thr Gly Ile Gln Val Asp Arg Asp (nNOS amino acids 229-238)],IC50,[4],300000 nM
same,percent inhibition of PIN-nNOS binding,[5],14%
